Target: T1, human histamine H3 receptor (Homo sapiens, UniProt Q9Y5N1)
T1 construct: expressed in transfected cells; host or cells: CHO K1 cells carrying the pSwitch regulatory plasmid, transfected with pGeneH3, induced with mifepristone; clone 3H3
Test: Histamine H3 functional antagonist assay ([35S]GTPγS SPA on membranes)
Format: biochemical
Details: membranes of CHO K1 cells expressing human histamine H3; histamine 0.3 μM; read-out: antagonism (pKb) (converted)
Text: A membrane preparation containing histamine H3 receptors may be prepared in accordance with the following procedures:
(i) Generation of Histamine H3 Cell Line
DNA encoding the human histamine H3 gene (Huvar, A. et al. (1999) Mol. Pharmacol. 55(6), 1101-1107) was cloned into a holding vector, pCDNA3.1 TOPO (InVitrogen) and its cDNA was isolated from this vector by restriction digestion of plasmid DNA with the enzymes BamH1 and Not-1 and ligated into the inducible expression vector pGene (InVitrogen) digested with the same enzymes. The GeneSwitch™ system (a system where in transgene expression is switched off in the absence of an inducer and switched on in the presence of an inducer) was performed as described in U.S. Pat. Nos. 5,364,791; 5,874,534; and 5,935,934. Ligated DNA was transformed into competent DH5α E. coli host bacterial cells and plated onto Luria Broth (LB) agar containing Zeocin™ (an antibiotic which allows the selection of cells expressing the sh ble gene which is present on pGene and pSwitch) at 50 μg ml^−1. Colonies containing the re-ligated plasmid were identified by restriction analysis. DNA for transfection into mammalian cells was prepared from 250 ml cultures of the host bacterium containing the pGeneH3 plasmid and isolated using a DNA preparation kit (Qiagen Midi-Prep) as per manufacturers guidelines (Qiagen).
CHO K1 cells previously transfected with the pSwitch regulatory plasmid (InVitrogen) were seeded at 2×10e6 cells per T75 flask in Complete Medium, containing Hams F12 (GIBCOBRL, Life Technologies) medium supplemented with 10% v/v dialysed foetal bovine serum, L-glutamine, and hygromycin (100 μg ml^−1), 24 hours prior to use. Plasmid DNA was transfected into the cells using Lipofectamine plus according to the manufacturers guidelines (InVitrogen). 48 hours post transfection cells were placed into complete medium supplemented with 500 μg ml^−1 Zeocin™.
10-14 days post selection 10 nM Mifepristone (InVitrogen), was added to the culture medium to induce the expression of the receptor. 18 hours post induction cells were detached from the flask using ethylenediamine tetra-acetic acid (EDTA; 1:5000; InVitrogen), following several washes with phosphate buffered saline pH 7.4 and resuspended in Sorting Medium containing Minimum Essential Medium (MEM), without phenol red, and supplemented with Earles salts and 3% Foetal Clone II (Hyclone). Approximately 1×10e7 cells were examined for receptor expression by staining with a rabbit polyclonal antibody, 4a, raised against the N-terminal domain of the histamine H3 receptor, incubated on ice for 60 minutes, followed by two washes in sorting medium. Receptor bound antibody was detected by incubation of the cells for 60 minutes on ice with a goat anti rabbit antibody, conjugated with Alexa 488 fluorescence marker (Molecular Probes). Following two further washes with Sorting Medium, cells were filtered through a 50 μm Filcon™ (BD Biosciences) and then analysed on a FACS Vantage SE Flow Cytometer fitted with an Automatic Cell Deposition Unit. Control cells were non-induced cells treated in a similar manner. Positively stained cells were sorted as single cells into 96-well plates, containing Complete Medium containing 500 μg ml^−1 Zeocin™ and allowed to expand before reanalysis for receptor expression via antibody and ligand binding studies. One clone, 3H3, was selected for membrane preparation.
(ii) Membrane Preparation from Cultured Cells
All steps of the protocol are carried out at 4° C. and with pre-cooled reagents. The cell pellet is resuspended in 10 volumes of buffer A2 containing 50 mM N-2-hydroxyethylpiperazine-N′-2-ethanesulfonic acid (HEPES) (pH 7.40) supplemented with 10e-4M leupeptin (acetyl-leucyl-leucyl-arginal; Sigma L2884), 25 μg/ml bacitracin (Sigma B0125), 1 mM ethylenediamine tetra-acetic acid (EDTA), 1 mM phenylmethylsulfonyl fluoride (PMSF) and 2×10e-6M pepstain A (Sigma). […]

T1 sequence (Q9Y5N1 whole entry): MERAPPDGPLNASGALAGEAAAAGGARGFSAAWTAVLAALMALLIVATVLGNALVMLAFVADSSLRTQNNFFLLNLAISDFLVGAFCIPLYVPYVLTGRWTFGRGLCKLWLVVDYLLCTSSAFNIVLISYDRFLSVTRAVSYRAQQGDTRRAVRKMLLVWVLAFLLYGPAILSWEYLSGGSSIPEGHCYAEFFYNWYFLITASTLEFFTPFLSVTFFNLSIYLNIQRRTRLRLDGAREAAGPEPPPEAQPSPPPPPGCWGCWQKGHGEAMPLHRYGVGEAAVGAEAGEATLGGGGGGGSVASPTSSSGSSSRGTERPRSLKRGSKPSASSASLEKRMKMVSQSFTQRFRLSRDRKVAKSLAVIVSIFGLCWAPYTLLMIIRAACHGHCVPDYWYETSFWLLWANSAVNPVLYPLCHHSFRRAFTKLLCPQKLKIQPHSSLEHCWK

Compound	Kb [nM]
O=C(Nc1ccc2c(c1)CCN(C1CCC1)CC2)c1ccc(-c2ccccn2)cc1 [Example 8, N-(3-Cyclobutyl-2,3,4,5-tetrahydro-1H-3-benzazepin-7-yl)-4-(2-pyridinyl)benzamide]	< 0.316
O=C(Nc1ccc2c(c1)CCN(C1CCC1)CC2)c1ccc(-c2cncnc2)cc1 [Example 29, N-(3-Cyclobutyl-2,3,4,5-tetrahydro-1H-3-benzazepin-7-yl)-4-(5-pyrimidinyl)benzamide]	< 0.316
O=C(Nc1ccc2c(c1)CCN(C1CCC1)CC2)c1ccc(-n2cnnn2)cc1 [Example 33, N-(3-Cyclobutyl-2,3,4,5-tetrahydro-1H-3-benzazepin-7-yl)-4-(1H-tetrazol-1-yl)benzamide]	< 0.316
N#Cc1ccc(-c2ccc(C(=O)Nc3ccc4c(c3)CCN(C3CCC3)CC4)cc2)cn1 [Example 34, 4-(6-Cyano-3-pyridinyl)-N-(3-cyclobutyl-2,3,4,5-tetrahydro-1H-3-benzazepin-7-yl)benzamide]	< 0.316
N#Cc1ccc(-c2ccc(C(=O)Nc3ccc4c(c3)CCN(C3CCC3)CC4)cn2)cc1 [Example 98, 6-(4-Cyanophenyl)-N-(3-cyclobutyl-2,3,4,5-tetrahydro-1H-3-benzazepin-7-yl)-3-pyridinecarboxamide]	< 0.316
O=C(Nc1ccc2c(c1)CCN(C1CCC1)CC2)c1cnc(N2CCCCC2)cn1 [Example 113, N-(3-Cyclobutyl-2,3,4,5-tetrahydro-1H-3-benzazepin-7-yl)-5-(1-piperidinyl)-2-pyrazinecarboxamide]	< 0.316

Other lines, results leading:

Kb [nM]	Compound
< 0.316	N#Cc1ccc(C(=O)Nc2ccc3c(c2)CCN(C2CCC2)CC3)cc1 [Example 2, 4-Cyano-N-(3-cyclobutyl-2,3,4,5-tetrahydro-1H-3-benzazepin-7-yl)benzamide]
< 0.316	Cc1ccc(C(=O)Nc2ccc3c(c2)CCN(C2CCC2)CC3)cn1 [Example 37, N-(3-Cyclobutyl-2,3,4,5-tetrahydro-1H-3-benzazepin-7-yl)-6-methylnicotinamide]
< 0.316	O=C(Nc1ccc2c(c1)CCN(C1CCC1)CC2)c1ccc(N2CCOCC2)nc1 [Example 44, N-(3-Cyclobutyl-2,3,4,5-tetrahydro-1H-3-benzazepin-7-yl)-6-(4-morpholinyl)-3-pyridinecarboxamide]
< 0.316	O=C(Nc1ccc2c(c1)CCN(C1CCC1)CC2)c1ccc(N2CCNC2=O)cc1 [Example 88, N-(3-Cyclobutyl-2,3,4,5-tetrahydro-1H-3-benzazepin-7-yl)-4-(2-oxo-1-imidazolidinyl)benzamide]
< 0.316	O=C(Nc1ccc2c(c1)CCN(C1CCC1)CC2)N1CCCc2ccccc21 [Example 148, N-(3-Cyclobutyl-2,3,4,5-tetrahydro-1H-3-benzazepin-7-yl)-3,4-dihydro-1(2H)-quinolinecarboxamide]

Reference: patent publication US20070060566A1, “Benzazepine derivatives as histamine h3 antagonists” (priority 2003, published 2007)
